# Patent US9492508B2, “Parathyroid hormone analogs and uses thereof” (The General Hospital Corporation, priority 2010, dated 2016)
# Ends that are not written are not given here.
# Tests used:
# PD PTH receptor = molecular target: T1, PD PTH receptor (Mus musculus, UniProt P41593, S489A/S491A/S492A/S493A/S495A/S501A/S504A); assay: Blood calcium and cAMP in knock-in mice with phosphorylation-deficient (PD) PTH receptor vs wild-type; type: in vivo; conditions: FIG. 19
# T1 construct: endogenous in cells; host or cells: knock-in mice (in vivo)
# T1 sequence (P41593 27-591 S489A/S491A/S492A/S493A/S495A/S501A/S504A): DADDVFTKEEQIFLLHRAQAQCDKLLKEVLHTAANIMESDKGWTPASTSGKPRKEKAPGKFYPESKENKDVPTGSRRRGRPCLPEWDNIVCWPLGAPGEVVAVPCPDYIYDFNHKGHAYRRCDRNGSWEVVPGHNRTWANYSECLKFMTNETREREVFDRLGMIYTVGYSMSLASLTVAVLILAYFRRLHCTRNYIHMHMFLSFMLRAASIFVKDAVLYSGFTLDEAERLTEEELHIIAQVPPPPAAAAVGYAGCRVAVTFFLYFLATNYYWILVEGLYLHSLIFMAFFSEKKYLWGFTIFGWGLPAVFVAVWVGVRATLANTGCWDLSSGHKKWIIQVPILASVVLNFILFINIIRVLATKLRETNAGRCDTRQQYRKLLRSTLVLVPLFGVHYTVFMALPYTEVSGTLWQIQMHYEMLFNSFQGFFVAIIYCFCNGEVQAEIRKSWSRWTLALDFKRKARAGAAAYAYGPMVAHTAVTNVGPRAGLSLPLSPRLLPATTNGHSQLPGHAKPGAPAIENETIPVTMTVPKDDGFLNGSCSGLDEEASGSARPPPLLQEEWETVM
# Experimental: The activity of SP-PTH-AAK (SEQ ID NO:4) was tested in “knock-in” mice that express a PD PTH receptor in place of the wild-type PTH receptor (Bounoutas et al., Endocrinology 147: 4674, 2006).
# Blood cAMP levels were also compared between the two types of mice.
# [1] = rat, in vivo, iv, 24.3 nmol/kg
# in vivo = conditions: rat, iv, 24.3 nmol/kg
# [2] = Stability in phosphate-citrate buffers and 10 mM acetic acid, reverse-phase HPLC; type: physicochemical; conditions: 4 weeks
# Experimental: The amount of intact SP-PTH-AAK (SEQ ID NO:4) peptide remaining in the sample, as compared to the starting sample, was measured by rPHPLC.
# Stability testing of SP-PTH-AAK (SEQ ID NO:4) was also performed. SP-PTH-AAK (SEQ ID NO:4) was stored at different peptide concentrations in 50 mM phosphate-citrate (PC) buffer (pH 4.0, 4.5, and 5.5) and 10 mM acetic acid at 5, 25, and 40° C. for 4 weeks.
# [3] = Solubility, in vitro precipitation assay (PBS pH 7.4 vs 10 mM acetic acid); type: physicochemical; conditions: PBS pH 7.4, 1 h room temperature, FIG. 16A
# Experimental: The relative solubilities of SP-PTH-AAK (SEQ ID NO:4) and SP-PTH (SEQ ID NO:11) in different buffers were assessed in an in vitro precipitation assay. For each polypeptide, two vials, each containing 50 μg of lyophilized polypeptide powder, were prepared; one vial was reconstituted in 50 μl of PBS at pH 7.4; the other vial was reconstituted in 50 μl of 10 mM acetic acid (pH 2.9) to give final concentrations of 1.0 mg/ml […]. After one hour at room temperature, the vials were centrifuged at 15,000×g for 2 minutes. The supernatant was removed and the protein content assayed using the Pierce BCA assay (Thermo Fischer Scientific, Rockford, Ill.). For each polypeptide, the content of the PBS sample was expressed as percent of the content of the corresponding acetic acid sample.
substance,measurement,setting,value
"AVAEIQLMHQRAKWIQDARRRAFLHKLIAEIHTAEI-OH [SP-PTH-AAK, [Ala^1,3,12,18,22,Gln^10,Arg^11,Trp^14,Lys^26]PTH(1-14)/PTHrP(15-36)]",blood calcium level in PD mice,PD PTH receptor,reduced blood calcium level for at least six hours after injection
same,AUCinf,[1],1131 pmol·min/mL
same,MRT,in vivo; Crl:CD(SD),5.83 min
same,Vd,in vivo; Crl:CD(SD),0.126 L/kg
same,clearance,in vivo; Crl:CD(SD),21.6 mL/min/kg
same,half-life,in vivo; Crl:CD(SD),7.27 min
same,AUC(0-t),in vivo,0.0187 µM·h
same,"stability, intact peptide by reverse-phase HPLC at 25° C.","[2]; 50 mM PC buffer pH 4.0, 4.5, 5.5 and 10 mM acetic acid, 25° C.",near full stability
same,"stability at 40° C., HPLC finding",[2]; 40° C.,"a degraded product, likely a methionine-oxide derivative, was detected"
same,"solubility in PBS pH 7.4 (percent of acetic acid sample), in words",[3],solubility similar to hPTH(1-34)NH2
